Measurements from patent US20230365546A1, “5-SUBSTITUTED INDOLE 3-AMIDE DERIVATIVES, PREPARATION METHOD AND USE THEREOF” (ORIGIANT PHARMACEUTICAL CO., LTD, priority 2020, published 2023).

What was measured:
Experiment in all cases: Kinase Profiler 10 μM panel
[1] = target: PI3 Kinase (p110a(E545K)/p85a)(h) (Homo sapiens (Human), UniProt P42336, E545K)
Procedure: (§1) In vitro kinase assays were conducted using Kinase Profiler services provided by Eurofins. The experimental method was as follows: the small molecule compound to be tested (0.001-10 μM), the protein kinase to be tested were incubated with a buffer containing substrate, 10 mM magnesium acetate, and [γ-^33P-ATP], the reaction was started by adding Mg\TPmix, after incubation for a period of time at room temperature, a 3% phosphate solution was added to the buffer to stop the reaction. Subsequently, 10 μL of the reaction mixture was quantitatively pipetted onto P30 filter paper, which was washed three times with 75 mM phosphate solution and then once with methanol. The P30 filter paper was air-dried and scintillation fluid was added for scintillation counting.

[2] = target: CK1ϵ(h) (Homo sapiens (Human), UniProt P49674)
Procedure: as §1

[3] = target: PAK3(h) (Homo sapiens (Human), UniProt O75914)
Procedure: as §1

[4] = target: EGFR(h) (Homo sapiens (Human), UniProt P00533)
Procedure: as §1

[5] = target: LIMK1(h) (Homo sapiens (Human), UniProt P53667)
Procedure: as §1

[6] = target: IKKß(h) (Homo sapiens (Human), UniProt O14920)
Procedure: as §1

[7] = target: PhKγ2(h) (Homo sapiens (Human), UniProt P15735)
Procedure: as §1

[8] = target: Abl (H396P)(h) (Homo sapiens (Human), UniProt P00519, H396P)
Procedure: as §1

[9] = target: CDK4/cyclinD3(h) (Homo sapiens (Human), UniProt P11802)
Procedure: as §1

[10] = target: MST4(h) (Homo sapiens (Human), UniProt Q9P289)
[11] = target: eEF-2K(h) (Homo sapiens (Human), UniProt O00418)
Procedure: as §1

[12] = target: EphA3(h) (Homo sapiens (Human), UniProt P29320)
Procedure: as §1

[13] = target: GRK5(h) (Homo sapiens (Human), UniProt P34947)
Procedure: as §1

[14] = target: CaMKIγ(h) (Homo sapiens (Human), UniProt Q96NX5)
Procedure: as §1

[15] = target: CDK2/cyclinE(h) (Homo sapiens (Human), UniProt P24941)
Procedure: as §1

[16] = target: DNA-PK(h) (Homo sapiens (Human), UniProt P78527)
Procedure: as §1

[17] = target: SAPK4(h) (Homo sapiens (Human), UniProt O15264)
Procedure: as §1

[18] = target: MEKK2(h) (Homo sapiens (Human), UniProt Q9Y2U5)
Procedure: as §1

[19] = target: STK32A(h) (Homo sapiens (Human), UniProt Q8WU08)
Procedure: as §1

[20] = target: ULK2(h) (Homo sapiens (Human), UniProt Q8IYT8)
Procedure: as §1

[21] = target: DYRK1A(h) (Homo sapiens (Human), UniProt Q13627)
Procedure: as §1

[22] = target: CaMKIIγ(h) (Homo sapiens (Human), UniProt Q13555)
Procedure: as §1

[23] = target: IR(h), activated (Homo sapiens (Human), UniProt P06213)
Procedure: as §1

[24] = target: NEK1(h) (Homo sapiens (Human), UniProt Q96PY6)
Procedure: as §1

[25] = target: TAO2(h) (Homo sapiens (Human), UniProt Q9UL54)
Procedure: as §1

[26] = target: CHK2(h) (Homo sapiens (Human), UniProt O96017)
Procedure: as §1

[27] = target: Lyn(m) (Mus musculus (Mouse), UniProt P25911)
Procedure: as §1

[28] = target: TTK(h) (Homo sapiens (Human), UniProt P33981)
Procedure: as §1

[29] = target: FGFR3(h) (Homo sapiens (Human), UniProt P22607)
Procedure: as §1

[30] = target: IRE1(h) (Homo sapiens (Human), UniProt O75460)
Procedure: as §1

[31] = target: AMPKα2(h) (Homo sapiens (Human), UniProt P54646)
Procedure: as §1

[32] = target: MRCKγ(h) (Homo sapiens (Human), UniProt Q6DT37)
Procedure: as §1

[33] = target: WNK3(h) (Homo sapiens (Human), UniProt Q9BYP7)
Procedure: as §1

[34] = target: CDKL1(h) (Homo sapiens (Human), UniProt Q00532)
Procedure: as §1

CaMKIγ(h), sequence (Q96NX5 whole entry): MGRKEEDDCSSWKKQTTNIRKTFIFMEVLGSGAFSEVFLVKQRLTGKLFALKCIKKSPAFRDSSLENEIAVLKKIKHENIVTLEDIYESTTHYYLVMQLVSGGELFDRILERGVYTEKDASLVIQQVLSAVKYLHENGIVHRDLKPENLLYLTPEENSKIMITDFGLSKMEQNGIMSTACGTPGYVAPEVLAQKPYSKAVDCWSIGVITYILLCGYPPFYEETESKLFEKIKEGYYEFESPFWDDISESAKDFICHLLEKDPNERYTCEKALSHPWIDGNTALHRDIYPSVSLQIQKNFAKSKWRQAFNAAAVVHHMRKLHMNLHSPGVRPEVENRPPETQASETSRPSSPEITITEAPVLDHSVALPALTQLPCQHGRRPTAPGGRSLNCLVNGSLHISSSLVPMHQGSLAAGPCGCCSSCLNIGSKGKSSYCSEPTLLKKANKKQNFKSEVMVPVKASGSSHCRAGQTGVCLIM
CaMKIIγ(h), sequence (Q13555 whole entry): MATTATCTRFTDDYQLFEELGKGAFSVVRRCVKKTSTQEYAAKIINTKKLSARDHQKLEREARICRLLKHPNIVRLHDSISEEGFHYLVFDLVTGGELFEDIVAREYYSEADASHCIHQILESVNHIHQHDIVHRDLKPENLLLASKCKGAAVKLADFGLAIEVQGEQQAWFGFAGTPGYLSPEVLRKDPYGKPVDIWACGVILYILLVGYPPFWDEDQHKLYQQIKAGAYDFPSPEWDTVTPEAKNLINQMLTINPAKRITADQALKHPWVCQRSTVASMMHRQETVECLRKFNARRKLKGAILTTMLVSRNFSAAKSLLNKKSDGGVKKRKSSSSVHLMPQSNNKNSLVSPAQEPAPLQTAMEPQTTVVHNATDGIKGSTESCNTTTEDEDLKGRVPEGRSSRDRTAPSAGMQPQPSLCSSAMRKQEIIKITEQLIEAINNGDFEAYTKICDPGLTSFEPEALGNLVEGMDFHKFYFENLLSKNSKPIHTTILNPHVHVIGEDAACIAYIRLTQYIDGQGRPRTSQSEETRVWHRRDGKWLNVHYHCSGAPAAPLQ
CDK4/cyclinD3(h), sequence (P11802 whole entry): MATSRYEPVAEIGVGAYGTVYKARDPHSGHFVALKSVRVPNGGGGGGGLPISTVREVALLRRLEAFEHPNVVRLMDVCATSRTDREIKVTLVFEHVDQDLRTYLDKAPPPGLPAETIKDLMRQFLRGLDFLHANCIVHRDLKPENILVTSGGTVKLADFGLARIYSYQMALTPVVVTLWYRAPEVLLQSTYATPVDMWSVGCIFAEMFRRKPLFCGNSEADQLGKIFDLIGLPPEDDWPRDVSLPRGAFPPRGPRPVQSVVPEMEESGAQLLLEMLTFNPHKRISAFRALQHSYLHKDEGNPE
CDK4/cyclinD3(h), sequence (P30281 whole entry partner): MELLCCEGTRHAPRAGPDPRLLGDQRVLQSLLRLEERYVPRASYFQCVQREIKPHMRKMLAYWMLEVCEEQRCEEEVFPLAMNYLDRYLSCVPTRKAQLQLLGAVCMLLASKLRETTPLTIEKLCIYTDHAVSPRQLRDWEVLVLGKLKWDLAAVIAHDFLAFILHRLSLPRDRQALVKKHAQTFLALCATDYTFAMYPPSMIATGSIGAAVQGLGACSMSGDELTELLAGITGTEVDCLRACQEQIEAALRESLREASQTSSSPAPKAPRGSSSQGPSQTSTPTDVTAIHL
ULK2(h), sequence (Q8IYT8 whole entry): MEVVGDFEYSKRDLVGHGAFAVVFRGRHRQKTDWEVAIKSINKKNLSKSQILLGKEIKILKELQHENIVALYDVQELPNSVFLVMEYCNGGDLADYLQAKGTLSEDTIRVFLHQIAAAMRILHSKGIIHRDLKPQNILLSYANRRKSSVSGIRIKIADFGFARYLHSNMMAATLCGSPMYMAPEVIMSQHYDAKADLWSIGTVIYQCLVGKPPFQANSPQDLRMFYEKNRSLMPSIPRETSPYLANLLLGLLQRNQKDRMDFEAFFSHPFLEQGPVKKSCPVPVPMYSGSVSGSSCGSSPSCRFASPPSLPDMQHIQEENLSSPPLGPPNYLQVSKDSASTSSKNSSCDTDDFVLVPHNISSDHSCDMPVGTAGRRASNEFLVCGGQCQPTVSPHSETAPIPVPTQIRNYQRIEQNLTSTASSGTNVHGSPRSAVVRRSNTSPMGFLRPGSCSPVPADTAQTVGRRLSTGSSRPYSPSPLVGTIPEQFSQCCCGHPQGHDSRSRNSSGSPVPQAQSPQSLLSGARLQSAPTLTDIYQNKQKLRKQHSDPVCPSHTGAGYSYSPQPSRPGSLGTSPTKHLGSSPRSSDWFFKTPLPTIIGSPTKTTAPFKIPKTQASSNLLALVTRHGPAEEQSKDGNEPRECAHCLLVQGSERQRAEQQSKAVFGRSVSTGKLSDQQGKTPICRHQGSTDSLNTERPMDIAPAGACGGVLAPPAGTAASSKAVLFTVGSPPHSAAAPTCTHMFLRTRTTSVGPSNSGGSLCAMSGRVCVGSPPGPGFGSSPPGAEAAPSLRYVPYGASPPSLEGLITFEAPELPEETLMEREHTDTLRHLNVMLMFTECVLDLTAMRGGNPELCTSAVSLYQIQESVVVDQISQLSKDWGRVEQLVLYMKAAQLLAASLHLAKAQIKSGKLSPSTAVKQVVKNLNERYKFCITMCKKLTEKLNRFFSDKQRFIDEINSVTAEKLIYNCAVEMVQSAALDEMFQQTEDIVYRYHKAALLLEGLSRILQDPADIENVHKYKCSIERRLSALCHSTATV
WNK3(h), sequence (Q9BYP7 whole entry): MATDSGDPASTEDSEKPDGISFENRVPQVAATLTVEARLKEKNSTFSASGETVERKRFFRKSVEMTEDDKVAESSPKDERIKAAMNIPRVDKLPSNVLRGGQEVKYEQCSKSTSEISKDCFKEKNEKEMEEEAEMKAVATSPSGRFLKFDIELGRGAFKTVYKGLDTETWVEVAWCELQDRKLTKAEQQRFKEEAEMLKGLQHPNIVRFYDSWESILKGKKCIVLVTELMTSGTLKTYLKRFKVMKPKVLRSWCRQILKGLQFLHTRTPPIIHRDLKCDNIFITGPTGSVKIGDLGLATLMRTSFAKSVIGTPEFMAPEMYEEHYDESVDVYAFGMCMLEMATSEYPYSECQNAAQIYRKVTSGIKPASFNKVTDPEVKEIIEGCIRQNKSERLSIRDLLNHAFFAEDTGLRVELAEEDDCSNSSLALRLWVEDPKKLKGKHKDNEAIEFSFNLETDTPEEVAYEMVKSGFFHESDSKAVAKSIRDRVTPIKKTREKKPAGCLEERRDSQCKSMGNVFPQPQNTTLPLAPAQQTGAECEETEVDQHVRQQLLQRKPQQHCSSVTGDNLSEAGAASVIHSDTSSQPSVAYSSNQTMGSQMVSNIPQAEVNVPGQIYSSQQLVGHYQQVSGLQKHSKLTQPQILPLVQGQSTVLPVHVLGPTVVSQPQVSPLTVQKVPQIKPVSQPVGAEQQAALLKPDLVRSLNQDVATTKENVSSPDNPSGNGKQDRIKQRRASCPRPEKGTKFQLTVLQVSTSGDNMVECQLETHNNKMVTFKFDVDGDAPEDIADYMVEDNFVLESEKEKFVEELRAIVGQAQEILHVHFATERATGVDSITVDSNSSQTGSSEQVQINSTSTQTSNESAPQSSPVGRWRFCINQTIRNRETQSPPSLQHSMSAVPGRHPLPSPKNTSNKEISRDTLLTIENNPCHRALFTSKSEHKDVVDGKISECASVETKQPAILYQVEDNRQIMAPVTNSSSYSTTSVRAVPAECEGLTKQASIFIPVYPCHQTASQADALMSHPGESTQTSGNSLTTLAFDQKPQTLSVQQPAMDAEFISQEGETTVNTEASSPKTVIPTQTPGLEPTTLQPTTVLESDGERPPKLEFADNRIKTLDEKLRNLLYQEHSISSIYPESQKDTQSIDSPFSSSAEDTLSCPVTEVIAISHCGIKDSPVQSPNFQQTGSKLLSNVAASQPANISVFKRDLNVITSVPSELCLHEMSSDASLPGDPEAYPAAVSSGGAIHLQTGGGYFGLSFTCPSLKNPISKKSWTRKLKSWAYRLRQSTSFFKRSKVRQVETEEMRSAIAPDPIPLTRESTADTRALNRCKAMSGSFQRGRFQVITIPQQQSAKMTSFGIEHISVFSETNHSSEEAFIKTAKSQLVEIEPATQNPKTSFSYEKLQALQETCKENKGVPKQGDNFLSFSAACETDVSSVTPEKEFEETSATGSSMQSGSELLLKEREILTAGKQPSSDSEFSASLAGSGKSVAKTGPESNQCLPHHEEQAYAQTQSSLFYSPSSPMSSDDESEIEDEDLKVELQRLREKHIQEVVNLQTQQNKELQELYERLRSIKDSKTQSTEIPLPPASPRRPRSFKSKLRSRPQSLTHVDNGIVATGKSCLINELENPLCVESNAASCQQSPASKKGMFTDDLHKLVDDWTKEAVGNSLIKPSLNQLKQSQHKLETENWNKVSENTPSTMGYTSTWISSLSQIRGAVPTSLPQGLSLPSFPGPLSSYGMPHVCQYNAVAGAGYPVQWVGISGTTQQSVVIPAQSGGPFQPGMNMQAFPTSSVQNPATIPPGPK
CHK2(h), sequence (O96017 whole entry): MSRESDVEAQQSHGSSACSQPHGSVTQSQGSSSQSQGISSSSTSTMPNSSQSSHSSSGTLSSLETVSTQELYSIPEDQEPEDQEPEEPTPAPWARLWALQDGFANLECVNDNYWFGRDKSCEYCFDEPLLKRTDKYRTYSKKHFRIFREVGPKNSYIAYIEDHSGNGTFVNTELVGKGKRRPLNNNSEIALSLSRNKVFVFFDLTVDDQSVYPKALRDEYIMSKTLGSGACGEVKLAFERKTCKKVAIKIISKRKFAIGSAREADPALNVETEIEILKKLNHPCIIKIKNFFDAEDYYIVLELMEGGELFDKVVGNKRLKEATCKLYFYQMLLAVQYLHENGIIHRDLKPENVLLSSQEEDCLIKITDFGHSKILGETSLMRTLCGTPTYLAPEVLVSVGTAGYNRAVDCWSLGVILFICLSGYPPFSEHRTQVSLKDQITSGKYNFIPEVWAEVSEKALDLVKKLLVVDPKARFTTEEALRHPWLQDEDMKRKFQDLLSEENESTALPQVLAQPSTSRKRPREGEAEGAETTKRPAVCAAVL

With C[C@H](NC(=O)c1c[nH]c2ccc(-c3ccc4nc(NC(=O)C5CC5)sc4c3)cc12)c1cccc(F)c1 [Compound 34, (S)-5-(2-(cyclopropanecarboxamido)benzo[d]thiazol-6-yl)-N-(1-(3-fluorophenyl)ethyl)-1H-indole-3-carboxamide] the Inhibition ratio [1] was 32%, the Inhibition ratio [2] was 35% and the Inhibition ratio [3] was −1%. The Inhibition ratio [4] was 19%, the Inhibition ratio [5] was 14% and the Inhibition ratio ([6]; IKKß(h)) was 12%. The Inhibition ratio [7] was 5%, the Inhibition ratio [8] was 98% and the Inhibition ratio [9] was −5%. It also gave an Inhibition ratio [10] of 11%, an Inhibition ratio [11] of −41% and an Inhibition ratio [12] of −8%. The Inhibition ratio [13] was 0%, the Inhibition ratio [14] was 7% and the Inhibition ratio [15] was 9%. For the same compound, the Inhibition ratio [16] was 24%, the Inhibition ratio [17] was 94% and the Inhibition ratio [18] was 3%. For the same compound, the Inhibition ratio [19] was 16%, the Inhibition ratio [20] was 13% and the Inhibition ratio [21] was 47%. For the same compound, the Inhibition ratio [22] was 2%, the Inhibition ratio [23] was 13% and the Inhibition ratio [24] was 18%. It also gave an Inhibition ratio [25] of 58%, an Inhibition ratio [26] of 22% and an Inhibition ratio [27] of 72%. For the same compound, the Inhibition ratio [28] was 55%, the Inhibition ratio [29] was 35% and the Inhibition ratio [30] was 16%. The Inhibition ratio [31] was 13%, the Inhibition ratio [32] was −1% and the Inhibition ratio [33] was 18%. The Inhibition ratio [34] was 50%.

C[C@H](NC(=O)c1cn(C)c2ccc(-c3ccn4nc(NC(=O)C5CC5)nc4c3)cc12)c1cccc(F)c1 [Compound 94, (S)-5-(2-(cyclopropanecarboxamido)-[1,2,4]triazolo[1,5-a]pyridin-7-yl)-N-(1-(3-fluorophenyl)ethyl)-1-methyl-1H-indole-3-carboxamide] was tested, and the Inhibition ratio/% [1] was 33%, the Inhibition ratio/% [2] was 59% and the Inhibition ratio/% [3] was −19%. For the same compound, the Inhibition ratio/% [4] was 10%, the Inhibition ratio/% [5] was −1% and the Inhibition ratio/% ([6]; IKKβ(h)) was −3%. The Inhibition ratio/% [7] was 48%, the Inhibition ratio/% [8] was 34% and the Inhibition ratio/% [9] was 4%. The Inhibition ratio/% [10] was 12%, the Inhibition ratio/% [11] was 26% and the Inhibition ratio/% [12] was 6%. For the same compound, the Inhibition ratio/% [13] was 21%, the Inhibition ratio/% [14] was −13% and the Inhibition ratio/% [15] was 36%. For the same compound, the Inhibition ratio/% [16] was 47%, the Inhibition ratio/% [17] was 12% and the Inhibition ratio/% [18] was −10%. The Inhibition ratio/% [19] was 55%, the Inhibition ratio/% [20] was 55% and the Inhibition ratio/% [21] was 2%. The Inhibition ratio/% [22] was −15%, the Inhibition ratio/% [23] was 35% and the Inhibition ratio/% [24] was 50%. It also gave an Inhibition ratio/% [25] of −14%, an Inhibition ratio/% [26] of 8% and an Inhibition ratio/% [27] of 19%. It also gave an Inhibition ratio/% [28] of 13%, an Inhibition ratio/% [29] of 40% and an Inhibition ratio/% [30] of 22%. For the same compound, the Inhibition ratio/% [31] was 16%, the Inhibition ratio/% [32] was 55% and the Inhibition ratio/% [33] was −20%. For the same compound, the Inhibition ratio/% [34] was 35%.
